The source made the active and inactive calls. The rule behind the calls is not given here.
Assays:
[1] = test system: BJ; assay: Cytotoxicity against human BJ cells after 72 hrs by MTT assay; format: cell-based; settings: Homo sapiens, BJ
[2] = test system: MCF7; assay: Cytotoxicity against human MCF7 cells after 72 hrs by MTT assay; format: functional, cell-based; settings: for IC50: MCF7, 72 h
[3] = test system: HeLa; assay: Induction of apoptosis in human HeLa cells assessed as increase in cleaved PARP level at 2.68 uM after 48 hrs by Western blot method; format: functional, cell-based
[4] = test system: HeLa; assay: Induction of cell cycle arrest in human HeLa cells assessed as accumulation at S phase at 2.68 uM after 24 hrs by propidium iodide staining-based flow cytometry (reference value: 35.72%); format: functional
[5] = test system: HeLa; assay: Cytotoxicity against human HeLa cells after 72 hrs by MTT assay; format: functional, cell-based
[6] = test system: HeLa; assay: Induction of apoptosis in human HeLa cells assessed as upregulation of Bax level after 48 hrs by Western blot method; format: functional, cell-based
[7] = test system: HeLa; assay: Downregulation of cyclin E level in human HeLa cells at 0.67 to 2.68 uM after 48 hrs by Western blot method; format: functional, cell-based
[8] = test system: HeLa; assay: Induction of cell cycle arrest in human HeLa cells assessed as accumulation at subG0/G1 phase at 2.68 uM after 48 hrs by propidium iodide staining-based flow cytometry; format: functional
[9] = test system: HeLa; assay: Induction of apoptosis in human HeLa cells assessed as viable cells at 2.68 uM after 48 hrs by annexin V-FITC/propidium iodide staining-based flow cytometry ( Rvb = 95.4%); format: functional; settings: read-out: Activity
[10] = test system: HeLa; assay: Induction of apoptosis in human HeLa cells assessed as increase in t-Bid level at 2.68 uM after 48 hrs by Western blot method; format: functional, cell-based
[11] = test system: HeLa; assay: Induction of cell cycle arrest in human HeLa cells assessed as accumulation at S phase at 1.34 uM after 24 hrs by propidium iodide staining-based flow cytometry (reference value: 35.72%); format: functional
[12] = test system: HeLa; assay: Induction of apoptosis in human HeLa cells assessed as viable cells at 1.34 uM after 48 hrs by annexin V-FITC/propidium iodide staining-based flow cytometry ( Rvb = 95.4%); format: functional; settings: read-out: Activity
[13] = test system: HeLa; assay: Induction of apoptosis in human HeLa cells assessed as late apoptotic cells at 1.34 uM after 48 hrs by annexin V-FITC/propidium iodide staining-based flow cytometry ( Rvb = 1.28%); format: functional
[14] = test system: HeLa; assay: Induction of cell cycle arrest in human HeLa cells assessed as accumulation at G0/G1 phase at 1.34 uM after 48 hrs by propidium iodide staining-based flow cytometry (reference value: 54.05%); format: functional
[15] = test system: HeLa; assay: Induction of apoptosis in human HeLa cells assessed as increase in cleaved caspase-8 level at 2.68 uM after 48 hrs by Western blot method; format: functional, cell-based
[16] = test system: HeLa; assay: Induction of apoptosis in human HeLa cells assessed as rupture of cell membrane at 2.68 uM after 48 hrs by Hoechst 33258 staining-based fluorescence microscopy; format: functional
[17] = test system: HeLa; assay: Induction of apoptosis in human HeLa cells assessed as cell shrinkage at 0.67 to 1.34 uM after 48 hrs by Hoechst 33258 staining-based fluorescence microscopy; format: functional
[18] = test system: HeLa; assay: Induction of apoptosis in human HeLa cells assessed as chromatin condensation at 0.67 to 1.34 uM after 48 hrs by Hoechst 33258 staining-based fluorescence microscopy; format: functional, cell-based
[19] = (§1) Cytotoxicity against human PC3 cells after 72 hrs by MTT assay; format: functional, cell-based; settings: PC-3, 72 h
[20] = test system: PC-3; assay: as §1; format: functional, cell-based
[21] = test system: HeLa; assay: Upregulation of p21 cip1/waf1 level in human HeLa cells at 1.34 to 2.68 uM after 48 hrs by Western blot method; format: functional, cell-based
[22] = test system: HeLa; assay: Induction of apoptosis in human HeLa cells assessed as viable cells at 0.67 uM after 48 hrs by annexin V-FITC/propidium iodide staining-based flow cytometry ( Rvb = 95.4%); format: functional; settings: read-out: Activity
[23] = test system: HeLa; assay: Induction of cell cycle arrest in human HeLa cells assessed as accumulation at G0/G1 phase at 2.68 uM after 24 hrs by propidium iodide staining-based flow cytometry (reference value: 51.41%); format: functional
[24] = test system: HeLa; assay: Induction of apoptosis in human HeLa cells assessed as dead cells at 0.67 uM after 48 hrs by annexin V-FITC/propidium iodide staining-based flow cytometry ( Rvb = 0.067%); format: functional
[25] = test system: HeLa; assay: Induction of apoptosis in human HeLa cells assessed as increase in cleaved caspase-3 level at 2.68 uM after 48 hrs by Western blot method; format: functional, cell-based
[26] = (§2) Cytotoxicity against human MIAPaCa2 cells after 72 hrs by MTT assay; format: functional, cell-based; settings: MIA PaCa-2, 72 h
[27] = test system: MIA PaCa-2; assay: as §2; format: functional, cell-based
[28] = test system: HeLa; assay: Induction of cell cycle arrest in human HeLa cells assessed as accumulation at G0/G1 phase at 1.34 uM after 24 hrs by propidium iodide staining-based flow cytometry (reference value: 51.41%); format: functional
[29] = test system: HeLa; assay: Induction of apoptosis in human HeLa cells assessed as dead cells at 1.34 uM after 48 hrs by annexin V-FITC/propidium iodide staining-based flow cytometry ( Rvb = 0.067%); format: functional
[30] = test system: Jurkat; assay: Cytotoxicity against human Jurkat cells after 72 hrs by XTT assay; format: functional, cell-based
[31] = test system: HeLa; assay: Induction of apoptosis in human HeLa cells assessed as early apoptotic cells at 2.68 uM after 48 hrs by annexin V-FITC/propidium iodide staining-based flow cytometry ( Rvb = 3.24%); format: functional
[32] = test system: HeLa; assay: Induction of apoptosis in human HeLa cells assessed as late apoptotic cells at 2.68 uM after 48 hrs by annexin V-FITC/propidium iodide staining-based flow cytometry ( Rvb = 1.28%); format: functional
[33] = test system: HeLa; assay: Induction of apoptosis in human HeLa cells assessed as dead cells at 2.68 uM after 48 hrs by annexin V-FITC/propidium iodide staining-based flow cytometry ( Rvb = 0.067%); format: functional
[34] = test system: HeLa; assay: Potency index, ratio of cisplatin IC50 to compound IC50 for human HeLa cells; format: functional
[35] = test system: HeLa; assay: Induction of apoptosis in human HeLa cells assessed as increase in Bax to Bcl2 ratio at 0.67 to 2.68 uM after 48 hrs by Western blot method; format: functional, cell-based
[36] = test system: HeLa; assay: Upregulation of p27 kip1 level in human HeLa cells at 1.34 to 2.68 uM after 48 hrs by Western blot method; format: functional, cell-based
[37] = test system: HeLa; assay: Induction of apoptosis in human HeLa cells assessed as reduction in adherent cells at 0.67 to 1.34 uM after 48 hrs by Hoechst 33258 staining-based fluorescence microscopy; format: functional, cell-based
[38] = test system: HeLa; assay: Induction of apoptosis in human HeLa cells assessed as early apoptotic cells at 0.67 uM after 48 hrs by annexin V-FITC/propidium iodide staining-based flow cytometry ( Rvb = 3.24%); format: functional
[39] = test system: HeLa; assay: Induction of apoptosis in human HeLa cells assessed as late apoptotic cells at 0.67 uM after 48 hrs by annexin V-FITC/propidium iodide staining-based flow cytometry ( Rvb = 1.28%); format: functional
[40] = test system: HT-29; assay: Cytotoxicity against human HT-29 cells after 72 hrs by MTT assay; format: functional, cell-based; settings: HT-29, 72 h
[41] = test system: HeLa; assay: Downregulation of cyclin D3 level in human HeLa cells after 48 hrs by Western blot method; format: functional, cell-based
[42] = test system: HeLa; assay: Potency index, ratio of asiatic acid IC50 to compound IC50 for human HeLa cells; format: functional
[43] = test system: A-375; assay: Cytotoxicity against human A375 cells after 72 hrs by MTT assay; format: functional, cell-based; settings: for IC50: A-375, 72 h
[44] = test system: HeLa; assay: Induction of apoptosis in human HeLa cells assessed as nuclear fragmentation at 2.68 uM after 48 hrs by Hoechst 33258 staining-based fluorescence microscopy; format: functional, cell-based
[45] = test system: HeLa; assay: Induction of apoptosis in human HeLa cells assessed as early apoptotic cells at 1.34 uM after 48 hrs by annexin V-FITC/propidium iodide staining-based flow cytometry ( Rvb = 3.24%); format: functional
[46] = test system: HeLa; assay: Induction of apoptosis in human HeLa cells assessed as downregulation of Bcl2 level after 48 hrs by Western blot method; format: functional, cell-based

With `C[C@H]1[C@H](C)CC[C@@]23CC[C@]4(C)[C@](OC2=O)([C@H](F)C[C@@H]2[C@@]5(C)C(C=O)=C[C@@](C)(COC(=O)/C=C/c6ccccc6)[C@@H]5CC[C@]24C)[C@H]13` as the compound, how does the IC50 [1] read?
The IC50 was 1.94 µM.

What about the Activity [2] of the same compound?
Its Activity is “Dose-dependent effect”.

What about the IC50 [2] of the same compound?
Its IC50 is 0.84 µM.

And the Activity [3]?
The Activity was “Active”.

What about the Activity [4] of the same compound?
Its Activity is 11.05%.

What about the IC50 [5] of the same compound?
The IC50 was 0.67 µM.

What about the Activity [6] of the same compound?
Its Activity is “Dose-dependent effect”.

And the Activity [7]?
The Activity was “Active”.

What about the Activity [8] of the same compound?
Its Activity is 11.39%.

What about the viability at 2.68 µM [9] of the same compound?
The viability at 2.68 µM was 62.4%.

What about the Activity [10] of the same compound?
Its Activity is “Active”.

And the Activity [11]?
The Activity was 22.55%.

And the viability at 1.34 µM [12]?
Its viability at 1.34 µM is 92%.

And the Activity [13]?
The Activity was 2.6%.

And the Activity [14]?
The Activity was 76.03%.

What about the Activity [15] of the same compound?
Its Activity is “Active”.

And the Activity [16]?
Its Activity is “Active”.

And the Activity [17]?
Its Activity is “Active”.

What about the Activity [18] of the same compound?
The Activity was “Active”.

And the IC50 [19]?
Its IC50 is 0.74 µM.

What about the Activity [20] of the same compound?
Its Activity is “Dose-dependent effect”.

What about the Activity [21] of the same compound?
The Activity was “Active”.

And the viability at 0.67 µM [22]?
Its viability at 0.67 µM is 94.7%.

What about the Activity [23] of the same compound?
The Activity was 72.72%.

What about the Activity [24] of the same compound?
Its Activity is 0.193%.

What about the Activity [25] of the same compound?
Its Activity is “Active”.

And the IC50 [26]?
Its IC50 is 1.13 µM.

And the Activity [27]?
Its Activity is “Dose-dependent effect”.

What about the Activity [28] of the same compound?
Its Activity is 67.26%.

What about the Activity [29] of the same compound?
The Activity was 0.172%.

What about the Activity [30] of the same compound?
Its Activity is “Dose-dependent effect”.

And the IC50 [30]?
Its IC50 is 0.68 µM.

And the Activity [31]?
The Activity was 12.1%.

And the Activity [32]?
The Activity was 22.6%.

What about the Activity [33] of the same compound?
Its Activity is 2.86%.

And the “Ratio IC50” value [34]?
The value was 3.5.

And the Activity [35]?
The Activity was “Active”.

And the Activity [36]?
Its Activity is “Active”.

What about the Activity [37] of the same compound?
Its Activity is “Active”.

What about the Activity [38] of the same compound?
Its Activity is 3.65%.

And the Activity [39]?
Its Activity is 1.23%.

What about the IC50 [40] of the same compound?
Its IC50 is 0.71 µM.

What about the Activity [41] of the same compound?
Its Activity is “Dose-dependent effect”.

And the “Ratio IC50” value [42]?
The value was 79.

What about the Activity [43] of the same compound?
Its Activity is “Dose-dependent effect”.

What about the IC50 [43] of the same compound?
Its IC50 is 0.72 µM.

What about the Activity [44] of the same compound?
Its Activity is “Active”.

And the Activity [45]?
The Activity was 5.25%.

And the Activity [46]?
Its Activity is “Dose-dependent effect”.

Which IC50 [1] does the source give for `C[C@H]1[C@H](C)CC[C@]2(C(=O)O)CC[C@]3(C)C(=CC[C@@H]4[C@@]5(C)C[C@@H](O)[C@H](O)[C@@](C)(CO)[C@@H]5CC[C@]43C)[C@H]12` [ASIATIC ACID] here?
Its IC50 is 88.7 µM.

And the Activity [2]?
The Activity was “Dose-dependent effect”.

And the IC50 [2]?
The IC50 was 68.5 µM.

And the IC50 [5]?
Its IC50 is 52.5 µM.

What about the IC50 [19] of the same compound?
Its IC50 is 67.2 µM.

What about the Activity [20] of the same compound?
The Activity was “Dose-dependent effect”.

And the IC50 [26]?
The IC50 was 50.7 µM.

What about the Activity [27] of the same compound?
The Activity was “Dose-dependent effect”.

What about the Activity [30] of the same compound?
The Activity was “Dose-dependent effect”.

What about the IC50 [30] of the same compound?
The IC50 was 37.2 µM.

And the IC50 [40]?
The IC50 was 64.3 µM.

And the Activity [43]?
Its Activity is “Dose-dependent effect”.

And the IC50 [43]?
The IC50 was 50.3 µM.

Source: ChEMBL document CHEMBL3784916, “Synthesis and anticancer activity of novel fluorinated asiatic acid derivatives” (Eur J Med Chem, 2016)
